Results from patent publication US9694016B2 (Novartis AG, priority 2013, dated 2017).
Read-outs that look alike come from different tables or passages of the source.

Target: b-Raf (V600E) (Homo sapiens (Human), UniProt P15056, V600E)
Details: read-out: b-Raf IC-50, AlphaScreen
[1] = 60 min pre-incubation, 3 hours reaction
[2] = 60 min pre-incubation, reaction 3 hours at room temperature

Chain of b-Raf (V600E) (P15056 whole entry V600E): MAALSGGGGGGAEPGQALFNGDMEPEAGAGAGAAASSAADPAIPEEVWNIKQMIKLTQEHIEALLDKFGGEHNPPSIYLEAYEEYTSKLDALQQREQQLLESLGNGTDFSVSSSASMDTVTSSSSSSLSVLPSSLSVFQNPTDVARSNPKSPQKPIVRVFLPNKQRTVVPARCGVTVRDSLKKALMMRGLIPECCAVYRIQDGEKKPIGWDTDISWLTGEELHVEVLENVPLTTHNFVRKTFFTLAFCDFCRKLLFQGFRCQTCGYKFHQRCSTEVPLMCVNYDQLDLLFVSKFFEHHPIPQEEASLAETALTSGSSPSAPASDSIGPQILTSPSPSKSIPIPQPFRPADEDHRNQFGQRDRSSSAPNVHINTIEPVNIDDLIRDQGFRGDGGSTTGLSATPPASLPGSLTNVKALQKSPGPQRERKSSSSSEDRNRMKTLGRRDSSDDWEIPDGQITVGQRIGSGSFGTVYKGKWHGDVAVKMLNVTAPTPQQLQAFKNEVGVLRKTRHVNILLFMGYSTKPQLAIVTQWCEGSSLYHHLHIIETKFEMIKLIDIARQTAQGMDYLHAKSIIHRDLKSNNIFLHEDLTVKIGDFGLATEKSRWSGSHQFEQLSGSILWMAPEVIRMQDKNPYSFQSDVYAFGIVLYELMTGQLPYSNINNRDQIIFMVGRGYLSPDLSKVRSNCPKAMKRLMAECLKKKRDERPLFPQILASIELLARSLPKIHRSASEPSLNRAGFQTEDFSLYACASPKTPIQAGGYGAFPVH

| SMILES | IC50 [1] [nM] | further results |
| --- | --- | --- |
| Cc1ncc(NC(=O)c2ccnc(S(C)(=O)=O)c2)cc1-c1cc(N2CCOCC2)n2nccc2n1 [Example 807, N-(6-methyl-5-(7-morpholinopyrazolo[1,5-a]pyrimidin-5-yl)pyridin-3-yl)-2-(methylsulfonyl)isonicotinamide] | 8.8 |  |
| CCC(F)(F)c1cc(C(=O)Nc2cnc(C)c(-c3cc(NCCO)nc(N4CCOCC4)c3)c2)ccn1 [Example 1058, 2-(1,1-difluoropropyl)-N-(2′-((2-hydroxyethyl)amino)-2-methyl-6′-morpholino-[3,4′-bipyridin]-5-yl)isonicotinamide] |  | IC50 [2]: 10.8 nM |
| CCOc1cc(-c2cc(NC(=O)c3ccnc(C(F)(F)F)c3)ccc2C)cc(N2CCOCC2)n1 [Example 1133, N-(3-(2-ethoxy-6-morpholinopyridin-4-yl)-4-methylphenyl)-2-(trifluoromethyl)isonicotinamide] |  | IC50 [2]: 1.29 nM |
| Cc1ncc(NC(=O)c2cccc(C(F)(F)F)c2)cc1-c1cc(N2CCOCC2)nc(N[C@H](C)CO)n1 [Example 748, (R)—N-(5-(2-((1-hydroxypropan-2-yl)amino)-6-morpholinopyrimidin-4-yl)-6-methylpyridin-3-yl)-3-(trifluoromethyl)benzamide] | 1.9 |  |
| Cc1ncc(NC(=O)c2ccnc(C(F)(F)F)c2)cc1-c1cc(N2CCOCC2)c(=O)n(C)c1 [Example 390, N-(1′,2-dimethyl-5′-morpholino-6′-oxo-1′,6′-dihydro-[3,3′-bipyridin]-5-yl)-2-(trifluoromethyl)isonicotinamide] |  | IC50 (Table 2, 3 hours reaction): 5.4 nM |
| Cc1ccc(NC(=O)c2ccnc(C(C)(C)O)c2)cc1-c1cc(N2CCOCC2)n(C)c(=O)c1 [Example 483, 2-(2-hydroxypropan-2-yl)-N-(4-methyl-3-(1-methyl-6-morpholino-2-oxo-1,2-dihydropyridin-4-yl)phenyl)isonicotinamide] | 3.5 |  |
| Cc1ccc(NC(=O)c2cccc(C(F)F)c2)cc1-c1cc(NCCO)nc(N2CCOCC2)c1 [Example 1036, 3-(difluoromethyl)-N-(3-(2-((2-hydroxyethyl)amino)-6-morpholinopyridin-4-yl)-4-methylphenyl)benzamide] |  | IC50 [2]: 0.54 nM |
| COCCN(C)c1cc(C(=O)Nc2ccc(C)c(-c3cc(N4CCOCC4)c(=O)n(C)c3)c2)ccn1 [Example 455, 2-((2-methoxyethyl)(methyl)amino)-N-(4-methyl-3-(1-methyl-5-morpholino-6-oxo-1,6-dihydropyridin-3-yl)phenyl)isonicotinamide] | 2.8 |  |
| Cc1ccc(NC(=O)c2cncc(C(F)(F)F)c2)cc1-c1cc(N2CCOCC2)c(=O)n(C)n1 [Example 909, N-(4-methyl-3-(1-methyl-5-morpholino-6-oxo-1,6-dihydropyridazin-3-yl)phenyl)-5-(trifluoromethyl)nicotinamide] |  | IC50 [2]: 1.56 nM |
| CCOc1nnc(-c2cc(NC(=O)c3ccnc(C(F)F)c3)ccc2C)cc1N1CCOCC1 [Example 562, 2-(difluoromethyl)-N-(3-(6-ethoxy-5-morpholinopyridazin-3-yl)-4-methylphenyl)isonicotinamide] | 0.6 |  |
| Cc1ncc(NC(=O)c2ccnc(C(F)F)c2)cc1-c1cc(N2CCOCC2)c(=O)n(C)c1 [Example 392, 2-(difluoromethyl)-N-(1′,2-dimethyl-5′-morpholino-6′-oxo-1′,6′-dihydro-[3,3′-bipyridin]-5-yl)isonicotinamide] |  | IC50 (Table 2, 3 hours reaction): 15.3 nM |
| CCn1c(N2CCOCC2)cc(-c2cc(NC(=O)c3ccnc(C(F)(F)CC)c3)ccc2C)cc1=O [Example 520, 2-(1,1-difluoropropyl)-N-(3-(1-ethyl-6-morpholino-2-oxo-1,2-dihydropyridin-4-yl)-4-methylphenyl)isonicotinamide] | 2.1 |  |
| Cc1ncc(NC(=O)c2cc(C(F)(F)F)ccn2)cc1-c1cc(N2CCOCC2)c(S(C)(=O)=O)nn1 [Example 923, N-(6-methyl-5-(6-(methylsulfonyl)-5-morpholinopyridazin-3-yl)pyridin-3-yl)-4-(trifluoromethyl)picolinamide] |  | IC50 [2]: 5.46 nM |
| Cc1ccc(NC(=O)c2cn(C)nc2C)cc1-c1cc(N2CCOCC2)c(=O)n(C)c1 [Example 366, 1,3-dimethyl-N-(4-methyl-3-(1-methyl-5-morpholino-6-oxo-1,6-dihydropyridin-3-yl)phenyl)-1H-pyrazole-4-carboxamide] |  | IC50 (Table 2, 3 hours reaction): 100 nM |
| COc1ncc(-c2cc(NC(=O)c3ccnc(C4(C#N)CC4)c3)cnc2Cl)cc1N1CCOCC1 [Example 260, N-(2-chloro-6′-methoxy-5′-morpholino-[3,3′-bipyridin]-5-yl)-2-(1-cyanocyclopropyl)isonicotinamide] |  | IC50 (Table 2, 3 hours reaction): 2.9 nM |
| Cc1ccc(NC(=O)c2ccnc(C(C)(F)F)c2)cc1-c1cc(N2CCOC[C@@H]2C)n(C)c(=O)c1 [Example 525, (S)-2-(1,1-difluoroethyl)-N-(4-methyl-3-(1-methyl-6-(3-methylmorpholino)-2-oxo-1,2-dihydropyridin-4-yl)phenyl)isonicotinamide] | 3.8 |  |

| SMILES | IC50 [1] [nM] | further results |
| --- | --- | --- |
| Cn1cc(-c2cc(NC(=O)c3cccc(C(F)(F)F)c3)ccc2Cl)cc(N2CCOCC2)c1=O [Example 409, N-(4-chloro-3-(1-methyl-5-morpholino-6-oxo-1,6-dihydropyridin-3-yl)phenyl)-3-(trifluoromethyl)benzamide] |  | IC50 (Table 2, 3 hours reaction): 1.7 nM |
| Cc1ncc(NC(=O)c2ccnc(C(F)(F)F)c2)cc1-c1cc(N2CCOCC2)c(S(C)(=O)=O)nn1 [Example 921, N-(6-methyl-5-(6-(methylsulfonyl)-5-morpholinopyridazin-3-yl)pyridin-3-yl)-2-(trifluoromethyl)isonicotinamide] |  | IC50 [2]: 7.73 nM |
| Cc1ncc(NC(=O)c2ccnc(C(F)(F)F)c2)cc1-c1cc(N2CCOCC2)n2nccc2n1 [Example 798, N-(6-methyl-5-(7-morpholinopyrazolo[1,5-a]pyrimidin-5-yl)pyridin-3-yl)-2-(trifluoromethyl)isonicotinamide] | 1.1 |  |
| Cc1ncc(NC(=O)c2cc(C(F)(F)F)ccn2)cc1-c1cnc(OC2CCOCC2)c(N2CCOCC2)c1 [Example 942, N-(2-methyl-5′-morpholino-6′-((tetrahydro-2H-pyran-4-yl)oxy)-[3,3′-bipyridin]-5-yl)-4-(trifluoromethyl)picolinamide] |  | IC50 [2]: 2.17 nM |
| CCOc1ncc(-c2cc(NC(=O)c3ccnc(C(F)(F)F)c3)cnc2C)cc1N1CCOCC1 [Example 246, N-(6′-ethoxy-2-methyl-5′-morpholino-[3,3′-bipyridin]-5-yl)-2-(trifluoromethyl)isonicotinamide] |  | IC50 (Table 2, 3 hours reaction): 1.2 nM |
| Cc1ccc(NC(=O)c2cnnc(C3CC3)c2)cc1-c1cc(N2CCOCC2)n(C)c(=O)c1 [Example 496, 6-cyclopropyl-N-(4-methyl-3-(1-methyl-6-morpholino-2-oxo-1,2-dihydropyridin-4-yl)phenyl)pyridazine-4-carboxamide] | 0.9 |  |
| Cc1ccc(NC(=O)c2ccnc(C(C)(F)F)c2)cc1-c1cc(N2CCOCC2)c(OC(C)C)nn1 [Example 592, 2-(1,1-difluoroethyl)-N-(3-(6-isopropoxy-5-morpholinopyridazin-3-yl)-4-methylphenyl)isonicotinamide] | 0.7 |  |
| CCOc1ncc(-c2cc(NC(=O)c3ccnc(C(C)(C)O)c3)cnc2C)cc1N1CCOCC1 [Example 240, N-(6′-ethoxy-2-methyl-5′-morpholino-[3,3′-bipyridin]-5-yl)-2-(2-hydroxypropan-2-yl)isonicotinamide] |  | IC50 (Table 2, 3 hours reaction): 15.3 nM |
| Cc1ccc(NC(=O)c2ccnc(C3COC3)c2)cc1-c1cc(N2CCOCC2)c(=O)n(C)n1 [Example 648, N-(4-methyl-3-(1-methyl-5-morpholino-6-oxo-1,6-dihydropyridazin-3-yl)phenyl)-2-(oxetan-3-yl)isonicotinamide] | 4.5 |  |
| Cc1ncc(NC(=O)c2ccnc(C(C)(C)O)c2)cc1-c1cc(N2CCOCC2)c2nccn2c1 [Example 878, 2-(2-hydroxypropan-2-yl)-N-(6-methyl-5-(8-morpholinoimidazo[1,2-a]pyridin-6-yl)pyridin-3-yl)isonicotinamide] |  | IC50 [2]: 100 nM |
| Cc1ccc(NC(=O)c2cnnc(C(C)(C)C#N)c2)cc1-c1cc(N2CCOCC2)nc(NCCO)n1 [Example 737, 6-(2-cyanopropan-2-yl)-N-(3-(2-((2-hydroxyethyl)amino)-6-morpholinopyrimidin-4-yl)-4-methylphenyl)pyridazine-4-carboxamide] | 17.9 |  |
| Cc1ccc(NC(=O)c2ccnc(C(C)(C)F)c2)cc1-c1cc(N2CCOC[C@@H]2C)c(=O)n(C)n1 [Example 662, (S)-2-(2-fluoropropan-2-yl)-N-(4-methyl-3-(1-methyl-5-(3-methylmorpholino)-6-oxo-1,6-dihydropyridazin-3-yl)phenyl)isonicotinamide] | 3.9 |  |
| Cc1ccc(NC(=O)c2ccnc(C(F)(F)F)c2)cc1-c1cc(N2CCOCC2)nc(N2CC(O)C2)c1 [Example 1060, N-(3-(2-(3-hydroxyazetidin-1-yl)-6-morpholinopyridin-4-yl)-4-methylphenyl)-2-(trifluoromethyl)isonicotinamide] |  | IC50 [2]: 3.93 nM |
| Cc1ccc(C(=O)Nc2cccc(OC(F)(F)F)c2)cc1-c1cc(N2CCOCC2)c(=O)n(C)c1 [Example 441, 4-methyl-3-(1-methyl-5-morpholino-6-oxo-1,6-dihydropyridin-3-yl)-N-(3-(trifluoromethoxy)phenyl)benzamide] | 33.2 |  |
| Cc1ncc(NC(=O)c2cccc(C(F)(F)F)c2)cc1-c1cc(N2CCOCC2)nc(NC(C)(C)CO)n1 [Example 752, N-(5-(2-((1-hydroxy-2-methylpropan-2-yl)amino)-6-morpholinopyrimidin-4-yl)-6-methylpyridin-3-yl)-3-(trifluoromethyl)benzamide] | 1.8 |  |
| Cc1ccc(NC(=O)c2cc(C(F)(F)F)ccn2)cc1-c1cc(N2CCOCC2)c(OC2CCOCC2)nn1 [Example 580, N-(4-methyl-3-(5-morpholino-6-((tetrahydro-2H-pyran-4-yl)oxy)pyridazin-3-yl)phenyl)-4-(trifluoromethyl)picolinamide] | 0.5 |  |
